The subject of test [1] is IL-12-induced IFN-γ secretion in NK92 cells. The test is described as follows: Inhibition of IL-12-induced IFN-γ secretion in NK92 cells (ELISA). Format: cell-based. The note with it: Homo sapiens, IL-12 stimulation, 24 hours, read-out: IC50 (NK92IL12/IFN-γ). As for the experimental part: The effect of the compounds of the present invention on IFN-γ secretion in IL-12-induced NK92 cells was evaluated by an enzyme-linked immunosorbent assay (ELISA).
The assay principle was generally described below: IL-12R was mainly expressed in activated T-cells, NK cells (NK92 was an NK cell line), DC cells, and B-cells. When binding to IL-12, it activated the JAK2/TYK2 signal transduction pathway within NK cells and activated T lymphocytes, thereby inducing secretion of IFN-γ.
The compound was dissolved to 2.5 mM in DMSO, followed by a serial 4-fold dilution with DMSO to a minimum concentration of 0.31 μM. Each concentration was further diluted 50-fold with an FBS-free MEMα medium (Thermofisher. 12561-056).
NK92 cells (Nanjing Cobioer, CBP60980) were cultured in a complete MEMα medium containing 12.5% FBS (Ausbian, VS500T), 12.5% horse serum (Thermofisher, 16050-122), 0.02 mM folic acid (Sigma, F8758), 0.2 mM inositol (Sigma, 17850), 0.55 mM β-mercaptoethanol (Thermofish, 21985-023), 200 U/mL IL-2 (R&D Systems, 202-1L), and 100 U/mL penicillin-streptomycin mixed liquor (ThermoFisher, 15140122). When covering 80-90% of the culture container surface, the cells were dispersed and plated on a 96-well plate (ThermoFisher, 167425) with 100,000 cells per well (80 μL of the complete MEMα medium without IL-2). The 96-well plate was then incubated overnight in a 37° C., 5% CO2 incubator.
After overnight incubation, 10 μL of the compound and 10 μL of 50 ng/ml IL-12 (R &D Systems, 219-1L) were added to each well and mixed gently, and the 96-well plate was incubated in the 37° C., 5% CO2 incubator for additional 24 hours. The plate was centrifuged at 800 rpm for 10 minutes at room temperature and 50 μL of the supernatant from each well was transferred to another 96-well plate (Sigma, CLS3695) coated with anti-IFN-γ antibody. The amount of IFN-γ secretion was detected following the instruction from the Human IFN-γ DuoSet ELISA assay kit (R & D Systems, DY285B). In this assay, the group in which IL-12 and the test compound were replaced with the MEMα medium was the non-stimulated control group (100% inhibition), and the group with IL-12 and 0.2% DMSO was the stimulated control group (0% inhibition). The compound inhibition curve was plotted using XLfit software and the IC50 of its inhibition was calculated.

The target in test [2] is human recombinant TYK2 protein (Homo sapiens, UniProt P29597). The experiment in a line: TYK2 activity inhibition assay (HTRF kinase detection). The following applies: 11.25 μM ATP substrate solution. Format: biochemical. As for the experimental part:
The effect of the compounds of the present invention on the activity of TYK2 was assessed by using an in vitro kinase detection assay.
The enzymatic activity of TYK2 was assessed by detecting the substrate phosphorylation level in a kinase reaction with a homogeneous time-resolved fluorescence (HTRF) kinase detection kit (Cisbio, 62TK0PEC). A reaction buffer contained an enzyme buffer (1×), 5 mM MgCl2, 1 mM DTT and 0.01% Brij35 from the kit; a human recombinant TYK2 protein (Carna Biosciences, 08-147) was diluted to a kinase reaction solution of 0.25 ng/μL with the reaction buffer; a substrate reaction solution contained 11.25 μM ATP and a biotin-labeled tyrosine kinase substrate diluted to 0.5 μM with the reaction buffer; a detection buffer contained 0.1 ng/μL Eu^3+ labeled cage antibody (Cisbio, 61T66KLB) and 25 nM streptavidin-labeled XL665 (Cisbio, 610SAXLB) in the reaction buffer; the compound was dissolved to 10 μM in DMSO, followed by a serial 4-fold dilution with DMSO to a minimum concentration of 0.061 nM. Each concentration was further diluted 40-fold with the reaction buffer. To a 384-well assay plate (Corning, 3674) were added 4 μL of the compound solutions having a series of concentrations and 2 μL of kinase reaction solutions. After being mixed evenly, the mixtures were incubated at room temperature for 15 minutes, and then 4 μL of the substrate reaction solutions were added. The reaction mixtures were incubated at room temperature for 40 minutes. Then the reaction mixtures were added with 10 μL of detection solutions, mixed evenly, and allowed to stand at room temperature for 30 minutes. An Envision plate reader (Perkin Elmer) was then used to measure the progress of the reaction at wavelengths of 620 nm and 665 nm. The signal value (absorbance at 665 nm/absorbance at 620 nm) was positively correlated with the degree of substrate phosphorylation, therefore the kinase activity of TYK2 was detected. In this assay, the group without TYK2 kinase protein was the 100% inhibition group, and the group with TYK2 kinase protein but without the test compound was the 0% inhibition group. The compound inhibition curve was plotted using XLfit software and the IC50 of its inhibition was calculated.

Test [3] deals with human recombinant JAK2 protein (Homo sapiens, UniProt O60674). The test is described as follows: JAK2 activity inhibition assay (HTRF kinase detection). Format: biochemical. The following applies: 2.5 μM ATP substrate solution. The protocol: The effect of the compounds of the present invention on the activity of JAK2 was assessed by using an in vitro kinase detection assay.
The enzymatic activity of JAK2 was assessed by detecting the substrate phosphorylation level in a kinase reaction with a homogeneous time-resolved fluorescence (HTRF) kinase detection kit (Cisbio, 62TK0PEC). A reaction buffer contained an enzyme buffer (1×), 5 mM MgCl2, 1 mM DTT and 0.01% Brij35 from the kit; a human recombinant JAK2 protein (Carna Biosciences, 08-045) was diluted to a kinase reaction solution of 0.15 ng/μL with the reaction buffer; a substrate reaction solution contained 2.5 μM ATP and a biotin-labeled tyrosine kinase substrate diluted to 0.25 μM with the reaction buffer; a detection buffer contained 0.1 ng/μL Eu^3+ labeled cage antibody (Cisbio, 61T66KLB) and 12.5 nM streptavidin-labeled XL665 (Cisbio, 610SAXLB) in the reaction buffer; the compound was dissolved to 10 μM in DMSO, followed by a serial 4-fold dilution with DMSO to a minimum concentration of 0.061 nM. Each concentration was further diluted 40-fold with the reaction buffer. To a 384-well assay plate (Corning, 3674) were added 4 μL of the compound solutions having a series of concentrations and 2 μL of JAK2 kinase reaction solutions. After being mixed evenly, the mixtures were incubated at room temperature for 15 minutes, and then 4 μL of the substrate reaction solutions were added. The reaction mixtures were incubated at room temperature for 30 minutes. Then the reaction mixtures were added with 10 μL of detection solutions, mixed evenly, and allowed to stand at room temperature for 30 minutes. An Envision plate reader (Perkin Elmer) was then used to measure the progress of the reaction at wavelengths of 620 nm and 665 nm. The signal value (absorbance at 665 nm/absorbance at 620 nm) was positively correlated with the degree of substrate phosphorylation, therefore the kinase activity of JAK2 was detected. In this assay, the group without JAK2 kinase protein was the 100% inhibition group, and the group with JAK2 kinase protein but without the test compound was the 0% inhibition group. The compound inhibition curve was plotted using XLfit software and the IC50 of its inhibition was calculated.

For the molecule `O=C1NCCn2c(-c3c(F)cccc3F)nc(Nc3ccc(C(=O)N4CCOCC4)cc3)c21` [Compound 2, 3-(2,6-difluorophenyl)-1-((4-(morpholine-4-carbonyl)phenyl)amino)-6,7-dihydroimidazo[1,5-a]pyrazin-8(5H)-one], in test [1], the IC50 was determined as 0.095 µM.
As to `O=C(c1ccc(Nc2nc(-c3c(F)cccc3Cl)n3cc[nH]c(=O)c23)cc1)N1CCOCC1` [Compound 3, 3-(2-chloro-6-fluorophenyl)-1-((4-(morpholine-4-carbonyl)phenyl)amino)imidazo[1,5-a]pyrazin-8(7H)-one], the figures for the IC50 in test [2], in test [1] and in test [3] were 0.0001 µM, 0.066 µM and 0.0004 µM, respectively.
Regarding `Cn1cc(Nc2nc(-c3c(F)cccc3F)n3cc[nH]c(=O)c23)cn1` [Compound 4, 3-(2,6-difluorophenyl)-1-((1-methyl-1H-pyrazol-4-yl)amino)imidazo[1,5-a]pyrazin-8(7H)-one], the IC50 in test [2] amounted to 0.0008 µM; in test [1], 0.175 µM; in test [3], 0.002 µM.
With `Cn1cc(Nc2nc(-c3c(F)cccc3F)n3c2C(=O)NCC3)cn1` [Compound 5, 3-(2,6-difluorophenyl)-1-((1-methyl-1H-pyrazol-4-yl)amino)-6,7-dihydroimidazo[1,5-a]pyrazin-8(5H)-one], the IC50 worked out at 0.0048 µM in test [2], 1.31 µM in test [1] and 0.027 µM in test [3].
With `O=c1[nH]ccn2c(-c3c(F)cccc3F)nc(Nc3ccc(N4CCOCC4)cc3)c12` [Compound 6, 3-(2,6-difluorophenyl)-1-((4-morpholinophenyl)amino)imidazo[1,5-a]pyrazin-8(7H)-one], the IC50 in test [2] came out at 0.0003 µM; in test [1], 0.198 µM; in test [3] it was 0.0053 µM.
As to `Cn1ccc(Nc2nc(-c3c(F)cccc3F)n3cc[nH]c(=O)c23)n1` [Compound 7, 3-(2,6-difluorophenyl)-1-((1-methyl-1H-pyrazol-3-yl)amino)imidazo[1,5-a]pyrazin-8(7H)-one], the IC50 is 0.02 µM in test [2] and 0.062 µM in test [3].
Consider `Cn1ccc(Nc2nc(-c3c(F)cccc3F)n3c2C(=O)NCC3)n1` [Compound 8, 3-(2,6-difluorophenyl)-1-((1-methyl-1H-pyrazol-3-yl)amino)-6,7-dihydroimidazo[1,5-a]pyrazin-8(5H)-one], for which the IC50 in test [2] came to 0.22 µM.
Consider `O=c1[nH]ccn2c(-c3c(F)cccc3F)nc(Nc3ccc(N4CCOCC4)cn3)c12` [Compound 9, 3-(2,6-difluorophenyl)-1-((5-morpholinopyridin-2-yl)amino)imidazo[1,5-a]pyrazin-8(7H)-one], for which the figures for the IC50 in test [2] and in test [3] were 0.007 µM and 0.013 µM, respectively.
For the molecule `O=C1NCCn2c(-c3c(F)cccc3F)nc(Nc3ccc(N4CCOCC4)cc3)c21` [Compound 10, 3-(2,6-difluorophenyl)-1-((4-morpholinophenyl)amino)-6,7-dihydroimidazo[1,5-a]pyrazin-8(5H)-one], the IC50 was 0.0004 µM in test [2], 0.122 µM in test [1] and 0.0044 µM in test [3].
As to `CC(=O)N1CCC(c2nc(Nc3ccc(C(=O)N4CCOCC4)cc3)c3c(=O)[nH]ccn23)CC1` [Compound 19, 3-(1-acetylpiperidin-4-yl)-1-((4-(morpholine-4-carbonyl)phenyl)amino)imidazo[1,5-a]pyrazin-8(7H)-one], the IC50 in test [2] turned out to be 0.023 µM; in test [3], 0.014 µM.
As for `O=C(c1ccc(Nc2nc(C3CCNCC3)n3cc[nH]c(=O)c23)cc1)N1CCOCC1` [Compound 20, 1-((4-(morpholine-4-carbonyl)phenyl)amino)-3-(piperidin-4-yl)imidazo[1,5-a]pyrazin-8(7H)-one], the IC50 in test [2] worked out at 0.037 µM; in test [3], 0.053 µM.
Turning to `O=C(c1ccc(Nc2nc(C3CCN(C4CC4)CC3)n3cc[nH]c(=O)c23)cc1)N1CCOCC1` [Compound 21, 3-(1-cyclopropylpiperidin-4-yl)-1-((4-(morpholine-4-carbonyl)phenyl)amino)imidazo[1,5-a]pyrazin-8(7H)-one], the IC50 in test [2] and in test [3] was 0.012 µM throughout.
Regarding `O=C(c1cccc(Nc2nc(-c3c(F)cccc3F)n3cc[nH]c(=O)c23)c1)N1CCOCC1` [Compound 22, 3-(2,6-difluorophenyl)-1-((3-(morpholine-4-carbonyl)phenyl)amino)imidazo[1,5-a]pyrazin-8(7H)-one], the IC50 turned out to be 0.0033 µM in test [2] and 0.0039 µM in test [3].
Turning to `O=C1NCCn2c(-c3c(F)cccc3F)nc(Nc3cccc(C(=O)N4CCOCC4)c3)c21` [Compound 23, 3-(2,6-difluorophenyl)-1-((3-(morpholine-4-carbonyl)phenyl)amino)-6,7-dihydroimidazo[1,5-a]pyrazin-8(5H)-one], the IC50 in test [2] came to 0.05 µM; in test [3], 0.029 µM.
In the same order, the values of `O=C1NCCn2c(-c3c(F)cccc3F)nc(Nc3cnn(CC(=O)N4CCOCC4)c3)c21` [Compound 24, 3-(2,6-difluorophenyl)-1-((1-(2-morpholino-2-oxoethyl)-1H-pyrazol-4-yl)amino)-6,7-dihydroimidazo[1,5-a]pyrazin-8(5H)-one] are 0.0032 µM and 0.042 µM.
For the molecule `CN1CCN(C(=O)Cn2cc(Nc3nc(-c4c(F)cccc4F)n4c3C(=O)NCC4)cn2)CC1` [Compound 25, 3-(2,6-difluorophenyl)-1-((1-(2-(4-methylpiperazin-1-yl)-2-oxoethyl)-1H-pyrazol-4-yl)amino)-6,7-dihydroimidazo[1,5-a]pyrazin-8(5H)-one], the IC50 in test [2] stood at 0.0051 µM; in test [3], 0.039 µM.

These data come from patent US20240246984A1, “HETEROCYCLIC JAK INHIBITOR” (BEIJING INNOCARE PHARMA TECH CO., LTD., priority 2020, published 2024).
